We go through three substances from paper PMC5667506, “Potent and selective inhibition of SH3 domains with dirhodium metalloinhibitors” (Chemical Science, 2015).

“And” between values parts separate entries of the source, which are not always exact repeats. Equal entries are not always repeated. Rh2(OAc)3 = dirhodium(II) triacetate, bound to the side-chain carboxylate

The target in one experiment is T1, Lyn SH3 domain (Homo sapiens, UniProt P07948).
T1 construct: The lyn SH3 domain was amplified by PCR using Phusion DNA polymerase; GST (N, cleaved yes); made in house; host or cells: E. coli BL21 (DE3)
T1 sequence (P07948 62-121): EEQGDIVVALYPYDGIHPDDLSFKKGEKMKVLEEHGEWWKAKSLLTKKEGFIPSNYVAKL
The experiment is described as follows: ITC binding of metallopeptides to Lyn SH3 domain. The text has this:
The His96 is unique among Src-family sequences, and the His78 appears only in Hck and Lck. Individual amino-acid alterations are the only factors that might distinguish the nearly identical secondary structures and peptide-binding preferences of Src-family SH3 domains (cf. Fig. 1a and b). Based on a Src-family SH3-binding sequence (VSL12),[37] known to bind with similar affinity across Src-family SH3 domains,[38] we made metallopeptides with rhodium in different sites near the beginning of the SH3-binding peptide. […] The optimal metallopeptide, S2E^Rh, bound to Lyn with 6 nM affinity. The accuracy of ITC data is reduced for C values >1000 (C = [protein]/K d). Under these conditions the distribution of data points on the isotherm reduces the precision of the global fit. Since the enthalpic contributions to binding in the formation of the complexes described in this work were high, we were able to use a low protein concentration (4 μM) which ensured that our C values were well below this upper range. […] In broad terms, the thermodynamics—favourable enthalpy and unfavourable entropy—are consistent with previous examinations of peptide–SH3 binding (see Table S1 ^† for thermodynamic data).[39] Moving the location of the rhodium center toward the N-terminus, away from the histidine, led to a drop in binding affinity. The N13D^Rh metallopeptide, a convenient negative control with the rhodium center too far for histidine interactions, binds with micromolar activity, similar to simple SH3 binding of the parent peptide. We conclude that the vast affinity improvement is due to rhodium coordination to unique histidine residue(s).
(§1) All chemical reagents were purchased from Sigma-Aldrich and were used without further purification.
(§2) Peptide synthesis. All peptides were synthesized manually or with an AAPPTEC APEX 396 Automated Multipeptide Synthesizer using standard solid-phase Fmoc protocols.1,2 Peptides were prepared as C-terminal amides using Rink amide MBHA resin (AAPPTEC) and were acetylated at the N-terminus prior to cleavage from the resin. Peptides and metallopeptides were purified by reverse-phase HPLC.
(§3) HPLC separation. Reverse-phase HPLC was performed on a Shimadzu CBM-20A instrument with Phenomenex Jupiter 4μ Proteo 90A (250 × 15 mm preparative) and Phenomenex Jupiter 4μ Proteo 90A (250 × 4.6 mm analytical) columns. The columns were eluted with a gradient of acetonitrile in water (10-90%) (flow rates of 8 mL/min and 1 mL/min for preparative and analytical columns, respectively). Trifluoroacetic acid (0.1%) was added to all eluents. […]
(§4) ITC analysis. ITC experiments were carried out on a VP-ITC instrument (MicroCal) at 25 °C. Titrations of 275 μM peptide into 18 μM SH3 domain proteins were used for all titrations, except for the titration of S2ERh into Lyn SH3 domain, where the lower concentrations of 69 µM S2ERh peptide and 4 µM Lyn SH3 were used to attain a c-value for the titration within the accepted limts for ITC experiments ([…]).3
(§5) Heats of dilutions were measured independently for each experiment by titrating 275 μM peptide into buffer (20 mM phosphate buffer, pH 7, 150 mM NaCl, 1 mM EDTA). All experimental data were fitted using a one set of sites binding model in Origin software (MicroCal) except for the data with Hck SH3 domain. With Hck only, the non-peptide specific binding of dirhodium tetraacetate to Hck SH3 domain could not be treated as negligible, despite the very weak interaction (88 µM), due to the larger enthalpy contribution observed for non-specific binding to this SH3 domain, so the titrations of peptide into Hck were fitted using a 2 set of sites binding model where the stoichiometry for the second set of sites was fixed at 2.0. […]
(§6) Mass spectrometry. ESI-MS was performed on a Bruker Daltonics micrOTOF instrument.
Known compounds and proteins. Several metallopeptides (S2ERh, L3ERh, R5ERh, and 13DRh) were reported previously and […]

The target in the next experiment is T2, Abl SH3 domain (Homo sapiens, UniProt P00519).
T2 construct: The abl SH3 domain was amplified by PCR using Phusion DNA polymerase; GST (N, cleaved yes); made in house; host or cells: E. coli BL21 (DE3)
T2 sequence (P00519 60-121): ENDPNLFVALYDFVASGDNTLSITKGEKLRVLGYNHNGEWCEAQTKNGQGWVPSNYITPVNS
The experiment in a line: ITC binding to Abl SH3 domain. The procedure: as §1, §2
(§7) HPLC separation. Reverse-phase HPLC was performed on a Shimadzu CBM-20A instrument with Phenomenex Jupiter 4μ Proteo 90A (250 × 15 mm preparative) and Phenomenex Jupiter 4μ Proteo 90A (250 × 4.6 mm analytical) columns. The columns were eluted with a gradient of acetonitrile in water (10-90%) (flow rates of 8 mL/min and 1 mL/min for preparative and analytical columns, respectively). Trifluoroacetic acid (0.1%) was added to all eluents.
(§8) FPLC separation. Analytical FPLC was performed on an ÄKTA instrument with Superdex Peptide PE 7.5/300 column. The column was equilibrated with buffer (150 mM NaCl, 50 mM Tris, pH 7.0) at flow rate of 0.2 mL/min.
as §4, §5, §6
(§9) Known compounds and proteins. Several metallopeptides (S2ERh, L3ERh, R5ERh, and 13DRh) were reported previously and were prepared by known protocols;4 alkyne-diazo 3,5 3-azido-7-hydroxycoumarin6 were synthesized following reported procedures; fyn, yes, lck, and src SH3 protein domains were prepared following published procedures.5 Abl, hck, and lyn SH3 domain plasmids were adapted from the previously reported genes;7 the gene templates were obtained from Addgene, ID

A further experiment concerns the target T3, Hck SH3 domain (Homo sapiens, UniProt P08631).
T3 construct: The hck SH3 domain was amplified by PCR using Phusion DNA polymerase; GST (N, cleaved yes); made in house; host or cells: E. coli BL21 (DE3)
The experiment in a line: ITC binding to Hck SH3 domain (two-sets-of-sites fit). The conditions noted are these: high affinity specific site. The procedure: as §1, §2, §3, §4, §5, §6
Known compounds and proteins. Several metallopeptides (S2ERh, L3ERh, R5ERh, and 13DRh) were reported previously and were prepared by known protocols;4 alkyne-diazo 3,5 3-azido-7-hydroxycoumarin6 were synthesized following reported procedures; fyn, yes, lck, and src SH3 protein domains were prepared following published procedures.5 Abl, hck, and lyn SH3 domain plasmids were adapted from the previously reported genes;7 the gene templates were obtained from Addgene, ID […]
Table S1. Table of the thermodynamic parameters for binding of metallopeptides to SH3 domains, determined by isothermal […]
Protein Peptide Stoichiometry Kd ΔH -TΔS ΔG
(nM) (kcal mol-1) (kcal mol-1) (kcal mol-1)
* The binding isotherms for metallopeptide interactions with Hck were fitted using a two -sets-of-sites model with the stoichiometry for the second set of sites fixed to 2.0. The second set of binding sites was used to account for the weak, but not negligable, binding of the peptide to another surface of Hck SH3 domain, presumably through non-specific interactions of the dirhodium tetraacetate group. The thermodynamics for the high affinity specific binding site interaction are provided in this

The target in a further experiment is T4, Yes SH3 domain (Homo sapiens, UniProt P07947).
T4 construct: fyn, yes, lck, and src SH3 protein domains were prepared following published procedures; made in house
T4 sequence (P07947 91-152 limits assumed): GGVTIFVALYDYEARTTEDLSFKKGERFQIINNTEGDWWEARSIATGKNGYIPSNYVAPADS
The experiment in a line: ITC binding to Yes SH3 domain. The conditions noted are these: Yes SH3, ITC. As to the method: as §1, §2, §7, §8, §4, §5, §6, §9

By Kd is commonly meant the free concentration of one partner at which half of the binding sites on the other are occupied at equilibrium, for simple one-to-one binding.

T3 sequence (P08631 77-139): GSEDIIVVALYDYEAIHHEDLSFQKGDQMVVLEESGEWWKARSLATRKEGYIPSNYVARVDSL

For the substance “AcVELARRPLPPLPN-NH2 (Ac-VE(Rh2(OAc)3)LARRPLPPLPN-NH2; also: metal complex: Glu2 carboxylate bound to dirhodium(II) triacetate) [S2E^Rh, rhodium(II) metallopeptide made from S2E peptide (Ac…-NH2) and Rh2(tfa)(OAc)3]”, the dissociation constant (Kd) with Lyn SH3 domain (25 °C) was 6 nM and 6.1 nM; with Abl SH3 domain (25 °C), 5750 nM.
Regarding “AcVELARRPLPPLPN-NH2 (Ac-VELARRPLPPLPN-NH2; also: Glu2 side-chain carboxylate bound to Rh2(OAc)3) [S2E^Rh, rhodium(II) metallopeptide made from S2E peptide (Ac…-NH2) and Rh2(tfa)(OAc)3]”, the Kd with Hck SH3 domain (25 °C) stood at 26 nM; in the experiment with Yes SH3 domain (25 °C, read-out: SH3 Kd), 610 nM.
In the case of AcVELARRPLPPLPN-NH2 [S2E^Rh], the Stoichiometry on Lyn SH3 domain is reported as 1.1; on Hck SH3 domain, 0.95; at Yes SH3 domain it was 0.79; at Abl SH3 domain it was 1.5. Besides, the “-TΔS” value came to 2.7 kcal/mol on Lyn SH3 domain (25 °C), 6.9 kcal/mol on Hck SH3 domain (25 °C), 9.1 kcal/mol at Yes SH3 domain (25 °C) and 10.6 kcal/mol at Abl SH3 domain (25 °C). Besides, the ΔG at Lyn SH3 domain (25 °C) is -11.2 kcal/mol; on Hck SH3 domain (25 °C), -10.4 kcal/mol; at Yes SH3 domain (25 °C), -8.5 kcal/mol; at Abl SH3 domain (25 °C) it was -7.1 kcal/mol. In addition, the ΔH result on Lyn SH3 domain (25 °C) is “–13.9 kcal mol-1”; at Lyn SH3 domain (25 °C, listed as S2ERh), -13.9 kcal/mol; on Hck SH3 domain (25 °C) it was -17.2 kcal/mol; at Yes SH3 domain (25 °C), -17.6 kcal/mol; at Abl SH3 domain (25 °C), -17.8 kcal/mol.
